According to patent US6225322A, “Compounds useful for inhibition of farnesyl protein transferase” (Schering Corporation, priority 1998, dated 2001):

Each compound was assayed against farnesyl protein transferase (Homo sapiens, UniProt P49354+P49356) (assay: FPT IC50 (inhibition of farnesyl protein transferase, in vitro enzyme assay)).
Assay type: biochemical
Method: (§1) FPT IC50 (inhibition of farnesyl protein transferase, in vitro enzyme assay) and COS Cell IC50 (Cell-Based Assay) were determined following the assay procedures described in WO 95/10516, published Apr. 20, 1995. GGPT IC50 (inhibition of geranylgeranyl protein transferase, in vitro enzyme assay), Cell Mat Assay, and anti-tumor activity (in vivo anti-tumor studies) could be determined by the assay procedures described in WO 95/10516. The disclosure of WO 95/10516 is incorporated herein by reference thereto.

IC50 [nM] | Compound
> 17000 | CCOC(=O)N1CCC(C2c3ncccc3CCc3cccnc32)CC1 [Example 6, ethyl 4-(6,11-dihydro-5H-cyclohepta[2,1-b:4,5-b']dipyridin-11-yl)-1-piperidinecarboxylate]
> 1400 | O=C(Cc1cc[n+]([O-])cc1)N1CCC(C2c3ncccc3CCc3cccnc32)CC1 [Example 8, 4-(6,11-dihydro-5H-cyclohepta[2,1-b: 4,5-b']dipyridin-11-yl)-1-(4-pyridinylacetyl) n1-oxide piperidine]
28 | O=C(Cc1cc[n+]([O-])cc1)N1CCC(C2c3ncc(Br)cc3CCc3cc(Br)cnc32)CC1 [Example 13, 4-(3,8-dibromo-6,11-dihydro-5H-cyclohepta [2,1-b:4,5-b']dipyridin-11-yl)-1-(4-pyridinylacetyl) n1-oxide piperidine]
290 | O=C(Cc1cc[n+]([O-])cc1)N1CCC(C2c3ncccc3CCc3cc(Br)cnc32)CC1 (stereo not drawn) [Example 17, 4-(3-bromo-6,11-dihydro-5H-cyclohepta [2,1-b:4,5-b']dipyridin-11-yl)-1-(4-pyridinylacetyl) n1-oxide piperidine]
160 | Cc1cnc2c(c1)CCc1cccnc1C2C1CCN(C(=O)Cc2cc[n+]([O-])cc2)CC1 (stereo not drawn) [Example 18, 4-(3-methyl-6,11-dihydro-5H-cyclohepta [2,1-b:4,5-b']dipyridin-11-yl)-1-(4-pyridinylacetyl) n1-oxide piperidine]

What follows are compounds tested on COS Cell (assay: COS Cell IC50 (Cell-Based Assay)).
Method: as §1

Compound | IC50 [nM]
O=C(Cc1cc[n+]([O-])cc1)N1CCC(C2c3ncc(Br)cc3CCc3cc(Br)cnc32)CC1 [Example 13, 4-(3,8-dibromo-6,11-dihydro-5H-cyclohepta [2,1-b:4,5-b']dipyridin-11-yl)-1-(4-pyridinylacetyl) n1-oxide piperidine] | 125
